Where “and” joins values, the source holds several entries; their conditions need not be identical. Identical values can stand only once. Inconclusive results and toxic doses are left out. No stated cut-off is given here; in the data, active means T/C of 150% or more; inactive means T/C below 125%.
Tested on: L1210 leukemia ip in BDF1 mice, survival T/C
Experiment: NCI In Vivo Anticancer Drug Screen. Data for tumor model L1210 Leukemia (intraperitoneal) in B6D2F1 (BDF1) mice
Conditions: endpoint: mean survival time, higher = longer survival
How it was run: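 Antitumor effect is assessed in tumor-bearing animals. Survival in the compound arm is compared with a vehicle-dosed control arm and expressed as their quotient.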

[1] = dose: 100.0 mg/kg/injection, schedule: Q04DX003 (ip), vehicle: Klucel (hydroxypropylcellulose) (HPC)
[2] = dose: 200.0 mg/kg/injection, schedule: Q04DX003 (ip), vehicle: Klucel (hydroxypropylcellulose) (HPC)
[3] = dose: 400.0 mg/kg/injection, schedule: Q04DX003 (ip), vehicle: Klucel (hydroxypropylcellulose) (HPC)
[4] = dose: 100.0 mg/kg/injection, schedule: Q01DX001 (ip), vehicle: saline
[5] = dose: 100.0 mg/kg/injection, schedule: Q04DX003 (ip), vehicle: saline
[6] = dose: 200.0 mg/kg/injection, schedule: Q01DX001 (ip), vehicle: saline
[7] = dose: 200.0 mg/kg/injection, schedule: Q04DX003 (ip), vehicle: saline
[8] = dose: 400.0 mg/kg/injection, schedule: Q01DX001 (ip), vehicle: saline
[9] = dose: 400.0 mg/kg/injection, schedule: Q04DX003 (ip), vehicle: saline
[10] = dose: 100.0 mg/kg/injection, schedule: Q04DX002 (ip), vehicle: saline
[11] = dose: 200.0 mg/kg/injection, schedule: Q04DX002 (ip), vehicle: saline
[12] = dose: 100.0 mg/kg/injection, schedule: Q01DX001 (ip), vehicle: carboxymethylcellulose (CMC)
[13] = dose: 200.0 mg/kg/injection, schedule: Q01DX001 (ip), vehicle: carboxymethylcellulose (CMC)
[14] = dose: 400.0 mg/kg/injection, schedule: Q01DX001 (ip), vehicle: carboxymethylcellulose (CMC)
[15] = dose: 50.0 mg/kg/injection, schedule: Q01DX009 (ip), vehicle: saline with Tween-80
[16] = dose: 100.0 mg/kg/injection, schedule: Q01DX009 (ip), vehicle: saline with Tween-80

Measured: T/C

COc1ccc(C2=NCCO2)cc1N
inactive: dose: 100.0 mg/kg/injection, schedule: Q01DX001 (ip), vehicle: Klucel (hydroxypropylcellulose) (HPC) 114 % of control | [1] 96 % of control | dose: 200.0 mg/kg/injection, schedule: Q01DX001 (ip), vehicle: Klucel (hydroxypropylcellulose) (HPC) 104 % of control | [2] 98 % of control | dose: 400.0 mg/kg/injection, schedule: Q01DX001 (ip), vehicle: Klucel (hydroxypropylcellulose) (HPC) 104 % of control | [3] 91 % of control

CCOC(=O)c1cc2c3n(c1=O)CCCC3C(c1ccncc1)OC2=O (centres undefined)
inactive: dose: 75.0 mg/kg/injection, schedule: Q04DX003 (ip), vehicle: saline 95 % of control | dose: 150.0 mg/kg/injection, schedule: Q04DX003 (ip), vehicle: saline 100 % of control | dose: 300.0 mg/kg/injection, schedule: Q04DX003 (ip), vehicle: saline 95 % of control

N=C(N)C[n+]1ccccc1
inactive: [4] 98 % of control | [5] 95 % of control | [6] 109 % of control | [7] 111 % of control | [8] 104 % of control | [9] 89 % of control

CCOC(=O)C1CCC(=O)NC1=O (centres undefined)
inactive: dose: 100.0 mg/kg/injection, schedule: Q01DX009 (ip), vehicle: saline 111 % of control | [5] 98 % of control | dose: 200.0 mg/kg/injection, schedule: Q01DX009 (ip), vehicle: saline 108 % of control | [7] 102 % of control | dose: 400.0 mg/kg/injection, schedule: Q01DX009 (ip), vehicle: saline 101 % of control | [9] 104 % of control

CCCCCCCCCCCCCCOc1ccc(S(=O)(=O)/N=C(\N)NC(N)=NCCCCCCCCCC)cc1
inactive: dose: 100.0 mg/kg/injection, schedule: Q04DX002 (ip), vehicle: Klucel (hydroxypropylcellulose) (HPC) 89 % of control | dose: 200.0 mg/kg/injection, schedule: Q04DX002 (ip), vehicle: Klucel (hydroxypropylcellulose) (HPC) 101 % of control | dose: 400.0 mg/kg/injection, schedule: Q04DX002 (ip), vehicle: Klucel (hydroxypropylcellulose) (HPC) 89 % of control

Oc1ccc(Sc2ccc(O)cc2)cc1
inactive: [5] 101 % of control | [7] 92 % of control

c1ccc(NC2=NCCN2)nc1
inactive: dose: 75.0 mg/kg/injection, schedule: Q01DX001 (ip), vehicle: saline 93 % of control

CCCCNS(=O)(=O)c1n[nH]c(=O)[nH]c1=O
inactive: dose: 100.0 mg/kg/injection, schedule: Q01DX001 (ip), vehicle: other 104 % of control | dose: 200.0 mg/kg/injection, schedule: Q01DX001 (ip), vehicle: other 101 % of control | dose: 400.0 mg/kg/injection, schedule: Q01DX001 (ip), vehicle: other 93 % of control

C=CC(=O)OCC(C)(C)C
inactive: [10] 100 % of control and 103 % of control | [11] 100 % of control and 107 % of control | dose: 800.0 mg/kg/injection, schedule: Q04DX002 (ip), vehicle: saline 97 % of control

c1ccc(CC2NCCc3ccccc32)cc1 (centres undefined)
inactive: dose: 25.0 mg/kg/injection, schedule: Q04DX003 (ip), vehicle: acetone 102 % of control | dose: 25.0 mg/kg/injection, schedule: Q04DX003 (ip), vehicle: saline with Tween-80 99 % of control | dose: 50.0 mg/kg/injection, schedule: Q04DX003 (ip), vehicle: acetone 102 % of control | dose: 50.0 mg/kg/injection, schedule: Q04DX003 (ip), vehicle: saline with Tween-80 94 % of control | dose: 100.0 mg/kg/injection, schedule: Q01DX001 (ip), vehicle: acetone 89 % of control | dose: 100.0 mg/kg/injection, schedule: Q04DX003 (ip), vehicle: acetone 91 % of control | dose: 100.0 mg/kg/injection, schedule: Q04DX003 (ip), vehicle: saline with Tween-80 102 % of control

Cc1cc(/C=C2\C=Cc3ccccc32)ccc1N(C)C
inactive: [4] 94 % of control | [6] 93 % of control | [8] 98 % of control

O=C(NC(Cc1ccccc1)C(=O)N1CCCCC1)c1ccccc1 (centres undefined)
inactive: [12] 101 % of control | [13] 92 % of control | [14] 90 % of control

C/C=C/C(=O)Nc1ccccc1F
inactive: dose: 100.0 mg/kg/injection, schedule: Q01DX009 (ip), vehicle: Klucel (hydroxypropylcellulose) (HPC) 93 % of control | dose: 200.0 mg/kg/injection, schedule: Q01DX009 (ip), vehicle: Klucel (hydroxypropylcellulose) (HPC) 103 % of control

COc1cc(C(=O)OC2=CC(=O)c3nc(OC(=O)c4cc(OC)c(OC)c(OC)c4)ccc3C2=O)cc(OC)c1OC
inactive: [4] 93 % of control | [6] 91 % of control | [8] 95 % of control

COC(=O)/C(=C/c1ccccc1)CBr
inactive: [15] 94 % of control | [16] 102 % of control

c1cc2c(cc1-c1nnc(-c3ccc4c(c3)OCO4)nn1)OCO2
inactive: dose: 400.0 mg/kg/injection, schedule: Q01DX001 (ip), vehicle: saline with Tween-80 86 % of control

C=C(CCCCC)C(=O)/C=C/c1ccc(Cl)c(Cl)c1
inactive: dose: 12.5 mg/kg/injection, schedule: Q04DX002 (ip), vehicle: DMSO 101 % of control | dose: 25.0 mg/kg/injection, schedule: Q04DX002 (ip), vehicle: DMSO 114 % of control | dose: 50.0 mg/kg/injection, schedule: Q04DX002 (ip), vehicle: DMSO 104 % of control

CC(CN(C)C)C(O)(c1ccccc1)c1ccccc1 (centres undefined)
inactive: dose: 50.0 mg/kg/injection, schedule: Q01DX001 (ip), vehicle: saline 98 % of control | [4] 98 % of control | [6] 104 % of control

CCCCCCCCC/C(C)=N\NC(=O)c1ccccc1
inactive: [1] 105 % of control | [2] 92 % of control | [3] 97 % of control

CC(=[N-])CC(C)=O.CC(=[N-])CC(C)=O.[Co+2]
inactive: dose: 12.5 mg/kg/injection, schedule: Q01DX001 (ip), vehicle: saline 86 % of control | dose: 25.0 mg/kg/injection, schedule: Q01DX001 (ip), vehicle: saline 98 % of control

Cc1cc(NC(=O)Nc2ccc(Cl)c(C(F)(F)F)c2)no1
inactive: dose: 50.0 mg/kg/injection, schedule: Q01DX009 (ip), vehicle: carboxymethylcellulose (CMC) 96 % of control and 97 % of control | [12] 110 % of control and 112 % of control | dose: 100.0 mg/kg/injection, schedule: Q04DX002 (ip), vehicle: carboxymethylcellulose (CMC) 94 % of control and 100 % of control | dose: 100.0 mg/kg/injection, schedule: Q04DX003 (ip), vehicle: carboxymethylcellulose (CMC) 96 % of control and 103 % of control | [13] 95 % of control and 108 % of control | dose: 200.0 mg/kg/injection, schedule: Q04DX002 (ip), vehicle: carboxymethylcellulose (CMC) 94 % of control and 97 % of control | dose: 200.0 mg/kg/injection, schedule: Q04DX003 (ip), vehicle: carboxymethylcellulose (CMC) 97 % of control and 101 % of control | [14] 94 % of control and 91 % of control | dose: 400.0 mg/kg/injection, schedule: Q01DX009 (ip), vehicle: carboxymethylcellulose (CMC) 86 % of control | dose: 400.0 mg/kg/injection, schedule: Q04DX002 (ip), vehicle: carboxymethylcellulose (CMC) 89 % of control and 90 % of control | dose: 400.0 mg/kg/injection, schedule: Q04DX003 (ip), vehicle: carboxymethylcellulose (CMC) 92 % of control and 95 % of control

C=CCc1ccc(OC(=O)Nc2cccc(C)c2)c(OC)c1
inactive: [15] 98 % of control | [16] 112 % of control | dose: 100.0 mg/kg/injection, schedule: Q04DX002 (ip), vehicle: saline with Tween-80 99 % of control | dose: 200.0 mg/kg/injection, schedule: Q01DX009 (ip), vehicle: saline with Tween-80 101 % of control and 102 % of control | dose: 200.0 mg/kg/injection, schedule: Q04DX002 (ip), vehicle: saline with Tween-80 89 % of control

CC1(C)C2CCC1(C)C(C(=O)C(F)(F)F)C2=O.CC1(C)C2CCC1(C)C(C(=O)C(F)(F)F)C2=O.[Co] (centres undefined)
inactive: [10] 110 % of control | [11] 94 % of control

CN1CCCCC(c2ccccc2)(c2ccccc2)C1=N
inactive: dose: 37.5 mg/kg/injection, schedule: Q01DX001 (ip), vehicle: saline 100 % of control

From PubChem BioAssay AID248 (DTP/NCI, 2004)
